Experimental data: ChEMBL document CHEMBL4602603, “A review on HCV inhibitors: Significance of non-structural polyproteins” (Eur J Med Chem, 2019)

biological target: T1, RNA-directed RNA polymerase (Hepacivirus hominis, UniProt O39930); assay: Binding affinity to HCV NS5B polymerase; conditions: not given
T1 sequence (O39930 whole entry): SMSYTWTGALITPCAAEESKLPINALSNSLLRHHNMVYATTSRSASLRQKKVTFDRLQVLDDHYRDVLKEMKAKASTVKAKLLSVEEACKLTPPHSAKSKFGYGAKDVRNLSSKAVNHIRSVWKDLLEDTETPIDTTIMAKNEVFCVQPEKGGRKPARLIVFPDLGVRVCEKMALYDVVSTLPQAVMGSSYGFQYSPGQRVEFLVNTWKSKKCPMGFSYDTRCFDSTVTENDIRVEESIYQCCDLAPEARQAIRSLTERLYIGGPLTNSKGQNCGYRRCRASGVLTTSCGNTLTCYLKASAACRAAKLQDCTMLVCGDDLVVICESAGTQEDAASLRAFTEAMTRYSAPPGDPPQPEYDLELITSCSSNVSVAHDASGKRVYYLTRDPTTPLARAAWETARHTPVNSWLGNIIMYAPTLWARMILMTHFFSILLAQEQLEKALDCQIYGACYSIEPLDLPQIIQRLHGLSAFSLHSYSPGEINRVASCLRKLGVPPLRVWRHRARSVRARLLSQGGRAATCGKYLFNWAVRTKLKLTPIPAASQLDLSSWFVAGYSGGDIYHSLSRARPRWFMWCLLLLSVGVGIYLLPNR

SMILES | Kd | IC50
CN(C)CC1COc2ccc3nc4n(c3c2C1)CC(CN(C)C)CN4 (centres undefined) | 720 nM | –
O=C(N[C@@H](Cc1c[nH]c2ccccc12)C(=O)O)c1ccc2c(c1)nc(-c1ccoc1)n2C1CCCCC1 | – | 19 nM
O=C(NCCCc1ccccc1)c1nc2ccccc2c(=O)n1O | – | 8800 nM
CN(C)CCCn1c(N)nc2ccc3c(c21)CC(CN(C)C)O3 (centres undefined) | 1700 nM | –
CN(C)CCCn1c(N)nc2ccccc21 | > 100000 nM | –
O=C(O)C1C(c2ccccc2)c2ccccc2C(=O)N1O (centres undefined) | – | 15700 nM
N#Cc1c(Cl)cc(Cl)cc1COc1cccc(C(=O)/C=C(\O)C(=O)O)c1 | – | 45000 nM

biological target: T2, Hepatitis C virus serine protease, NS3/NS4A (Hepatitis C virus, UniProt A3EZI9+D2K2A8); assay: Inhibition of HCV NS3/4a protease; type: protein-complex assay, Hepacivirus hominis; conditions: not given
T2 sequence (D2K2A8 whole entry): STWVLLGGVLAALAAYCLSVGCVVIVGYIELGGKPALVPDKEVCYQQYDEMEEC
T2 sequence (A3EZI9 whole entry): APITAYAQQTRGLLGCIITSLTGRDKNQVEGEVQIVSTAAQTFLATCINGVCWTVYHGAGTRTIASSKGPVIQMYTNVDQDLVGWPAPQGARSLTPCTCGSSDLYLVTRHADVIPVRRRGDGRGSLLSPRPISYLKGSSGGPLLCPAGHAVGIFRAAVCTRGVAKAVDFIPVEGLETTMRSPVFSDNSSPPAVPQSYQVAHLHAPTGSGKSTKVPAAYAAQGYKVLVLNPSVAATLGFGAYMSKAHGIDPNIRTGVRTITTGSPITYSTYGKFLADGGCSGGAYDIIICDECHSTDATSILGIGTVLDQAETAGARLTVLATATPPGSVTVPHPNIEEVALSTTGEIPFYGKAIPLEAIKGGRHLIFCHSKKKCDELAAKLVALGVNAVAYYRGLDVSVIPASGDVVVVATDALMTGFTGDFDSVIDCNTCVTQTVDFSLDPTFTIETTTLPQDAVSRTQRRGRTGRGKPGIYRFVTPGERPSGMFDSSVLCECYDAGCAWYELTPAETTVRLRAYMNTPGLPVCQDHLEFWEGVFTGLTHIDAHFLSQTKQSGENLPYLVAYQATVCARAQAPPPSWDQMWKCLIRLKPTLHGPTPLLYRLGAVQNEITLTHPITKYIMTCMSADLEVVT

SMILES | Ki | IC50
Cn1c(Cc2nc3cc(C(N)=O)ccc3[nH]2)nc2ccc(C(=O)NC(CP(=O)(O)O)C(=O)O)cc21 (centres undefined) | 1000 nM | –
COc1ccc2cc(O[C@@H]3C[C@@H](C(=O)NC4(C(=O)O)CC4)N(C(=O)[C@@H](NC(=O)[C@@H](NC(C)=O)C4CCCCC4)C(C)C)C3)cnc2c1 | – | 800 nM
CC(=O)N[C@@H](C(=O)O)C(=O)N[C@@H](CCC(=O)O)C(=O)N[C@H](C(=O)N[C@@H](CCC(=O)O)C(=O)N[C@@H](CC1CCCCC1)C(=O)N[C@@H](CC(F)F)C(=O)O)C(c1ccccc1)c1ccccc1 | 20 nM | –
CC(=O)N[C@@H](C(=O)O)C(=O)N[C@@H](CCC(=O)O)C(=O)N[C@H](C(=O)N[C@H](C(=O)N1C[C@H](OCc2ccccc2)C[C@H]1C(=O)NC(CS)C(=O)O)C(C)C)C1CCCCC1 (some centres undefined) | – | 33 nM
CC(C)C[C@H](NC[C@H](CC(=O)O)NC(=O)[C@H](CC1CCCCC1)NC(=O)[C@@H]1CCCC[C@H]1C(=O)O)C(N)=O | – | 15000 nM
CC(=O)N[C@@H](C(=O)O)C(=O)N[C@@H](CCC(=O)O)C(=O)N[C@H](C(=O)N[C@@H](CCC(=O)O)C(=O)N[C@@H](CC1CCCCC1)C(=O)N[C@@H](CS)C(=O)O)C(c1ccccc1)c1ccccc1 | 40 nM | –
CC(C)C[C@H](NC(=O)[C@H](CC(=O)O)NC(=O)OC(C)C)C(=O)N[C@@H](CC(F)(F)F)C(=O)NCCc1ccc(C(=O)O)cc1Cl | 600 nM | –
CC(=O)N[C@@H](C(=O)O)C(=O)N[C@@H](CCC(=O)O)C(=O)N[C@H](C(=O)N[C@H](C(=O)N1C[C@H](OCc2ccccc2)C[C@H]1C(=O)NC1(C(=O)O)CC1)C(C)C)C1CCCCC1 | – | 51 nM

biological target: T1, RNA-directed RNA polymerase; assay: Inhibition of HCV NS5B polymerase; conditions: not given

SMILES | IC50
Cc1cc2c(-c3ccc[nH]c3=O)c(C(=O)NS(=O)(=O)C3CC3)n(Cc3cc(F)ccc3F)c2cc1F | 8 nM
CC1COc2cc3c(-c4ccc[nH]c4=O)c(C(=O)NS(C)(=O)=O)n(Cc4cc(F)ccc4F)c3cc21 (centres undefined) | 6 to 15 nM
Nc1cc(Cn2c(C(=O)O)c(-c3ccc[nH]c3=O)c3ccc(Cl)cc32)ccn1 | 53 nM
CCCC1(CC(=O)O)OCCC2c3c(CC)ccc(Cl)c3NC21 (centres undefined) | 3000 nM
CS(=O)(=O)Nc1cccc(S(=O)(=O)NC(=O)c2c(-c3ccc[nH]c3=O)c3ccc(Cl)cc3n2Cc2ccnc(N)c2)c1 | 39 nM
Cc1ccc2c(-c3ccc[nH]c3=O)c(C(=O)NS(=O)(=O)C3CC3)n(Cc3cc(F)ccc3F)c2c1 | 5 nM

tested on: Hepatitis C virus; assay: Antiviral activity against HCV; type: functional, organism-based, Hepacivirus hominis; conditions: not given

SMILES | EC50 | IC50
O=C(N[C@@H](Cc1c[nH]c2ccc(O)cc12)c1cscn1)c1ccc2c(c1)nc(-c1ccco1)n2C1CCCCC1 | 1700 nM | –
CCCC[C@H](NC(=O)[C@@H]1[C@@H]2[C@H](CN1C(=O)[C@@H](NC(=O)NC1(CS(=O)(=O)C(C)(C)C)CCCCC1)C(C)(C)C)C2(C)C)C(=O)C(=O)NC1CC1 | 40 nM | –
Nc1nc(C(F)(F)F)cc2c1[nH]c(=O)n2Cc1ccccc1 | 102000 nM | –
O=C1Cn2c(c(C3CCCCC3)c3ccc(C(=O)O)cc32)-c2ccccc2N1 | 240 nM | –
CCCCn1cc(/C=C2\Oc3cc(O)cc(O)c3C2=O)c2ccccc21 | 2200 nM | –
C=C[C@@H]1C[C@]1(NC(=O)[C@@H]1C[C@@H](Oc2ncc(OC)c3ccc(Cl)cc23)CN1C(=O)[C@@H](NC(=O)OC(C)(C)C)C(C)(C)C)C(=O)NS(=O)(=O)C1CC1 | 1 nM | –
COCCOc1nc(N)c2[nH]c(=O)n(Cc3ccccc3)c2n1 | 20000 nM | –
CN(C)C(=O)Cn1c(-c2ccccc2)c(C2CCCCC2)c2sc(C(=O)O)cc21 | 2900 nM | –
O=C(O)c1ccc2c(C3CCCCC3)c3n(c2c1)CCN(CCN1CCCCC1)c1ccccc1-3 | 400 nM | –
O=C(O)c1ccc2c(C3CCCCC3)c3n(c2c1)CCOc1cc(OCc2cc(N4CCCC4=O)ccc2N2CCOCC2)ccc1-3 | 7.6 nM | –
COc1ccc2c(O[C@@H]3C[C@H]4C(=O)N[C@]5(C(=O)O)C[C@H]5/C=C\CCCCC[C@H](NC(=O)OC5CCCC5)C(=O)N4C3)cc(-c3csc(NC(C)C)n3)nc2c1 | 9.5 nM | –
COC(=O)N[C@H](C(=O)N1CCC[C@H]1c1nc2ccc(-c3ccc(-c4ccc5nc([C@@H]6CCCN6C(=O)[C@@H](NC(=O)OC)C(C)C)[nH]c5c4)cc3)cc2[nH]1)C(C)C | 0.83 nM | –
Cc1ccc(NC(=O)c2c(NO)cc(-c3ccccc3)oc2=O)cc1 | 180 nM | –
CC(C)N1CC[C@@H](N2CCn3c(c(C4CCCCC4)c4sc(C(=O)O)cc43)-c3ccccc3C2)C1 | 150 nM | –
CC(=O)N(c1ccc(N2CCOCC2)c(COc2ccc(-c3nc4cc(C(=O)O)ccc4n3C3CCCCC3)c(F)c2)c1)C(C)C | 270 nM | –
CC[C@@H]1C[C@]1(NC(=O)[C@@H]1C[C@@H]2CN1C(=O)[C@H](C(C)(C)C)NC(=O)OCC(C)(C)CCCCc1cccc3c1CN(C3)C(=O)O2)C(=O)NS(=O)(=O)C1CC1 | – | 3 nM
C/C(=C/c1cc(-c2ccc(OCc3cc(CN4CCC(O)CC4=O)ccc3-c3ccc(C#N)cc3)cc2)n(C2CCCCC2)n1)C(=O)O (centres undefined) | 400 nM | –
CN(C)CCN(C)[C@@H]1Cn2c(c(C3CCCCC3)c3ccc(C(=O)O)cc32)-c2ccccc2O1 | 38 nM | –

SMILES | EC50 | IC50
Nc1cc(Cn2c(C(=O)O)c(-c3ccc[nH]c3=O)c3ccc(Cl)cc32)ccn1 | 4800 nM | –
Cn1c(-c2ccco2)c(C2CCCCC2)c2ccc(C(=O)N[C@@H](Cc3c[nH]c4ccc(O)cc34)c3cscn3)cc21 | 50 nM | –
COc1ccc2c(c1)[C@H]1[C@@H](CCN1CCN(C)C)CCn1c-2c(C2CCCCC2)c2ccc(C(=O)O)cc21 | 29 nM | –
COc1ccc2c(c1)C=C(c1c(C(=O)C3C4CCCC3COC4)cnn1-c1ccncc1C)Cn1c-2c(C2CCCCC2)c2ccc(C(=O)NS(=O)(=O)C(C)C)cc21 (centres undefined) | 4 nM | –
Cn1c(-c2ccc(OCc3cc(N4CCCC4=O)ccc3N3CCOCC3)cc2)c(C2CCCCC2)c2sc(C(=O)O)cc21 | 52 nM | –
CS(=O)(=O)Nc1cccc(S(=O)(=O)NC(=O)c2c(-c3ccc[nH]c3=O)c3ccc(Cl)cc3n2Cc2ccnc(N)c2)c1 | 11 nM | –
CCc1ccc2c(-c3ccc[nH]c3=O)c(C(=O)NS(=O)(=O)C3CC3)n(Cc3cc([N+](=O)[O-])ccc3F)c2c1 | 1 nM | –
Cc1c(C(=O)O)sc2c(C3CCCCC3)c(-c3ccccc3)n(CC(=O)N(C)C3CCN(C(C)C)C3)c12 (centres undefined) | 130 nM | –
CCN(CC)C1CCN(C(=O)Cn2c(-c3ccco3)c(C3CCCCC3)c3ccc(C(=O)NS(=O)(=O)N(C)C)cc32)CC1 | 120 nM | –
CCN(CC)C1CCN(C(=O)Cn2c(-c3ccccc3)c(C3CCCCC3)c3ccc(C(=O)O)cc32)CC1 | 800 nM | –
Cc1ccc2c(-c3ccc[nH]c3=O)c(C(=O)NS(=O)(=O)C3CC3)n(Cc3cc(F)ccc3F)c2c1 | 90 nM | –
CN(C)CCN1CCn2c(c(C3CCCCC3)c3ccc(C(=O)O)cc32)-c2ccccc2C1 | 140 nM | –
CCc1nc2c(N)nc3ccccc3c2n1CCCCNS(C)(=O)=O [CPG-52852] | 100000 nM | –
CC(C)(C)OC(=O)N[C@H]1CCCCC/C=C\[C@@H]2C[C@@]2(C(=O)NS(=O)(=O)C2CC2)NC(=O)[C@@H]2C[C@@H](OC(=O)N3Cc4cccc(F)c4C3)CN2C1=O [DANOPREVIR] | 17.5 nM | –
C=C[C@@H]1C[C@]1(NC(=O)[C@@H]1C[C@@H]2CN1C(=O)[C@H](C(C)(C)C)NC(=O)O[C@@H]1C[C@H]1CCCCCc1nc3ccc(OC)cc3nc1O2)C(=O)NS(=O)(=O)C1CC1 [GRAZOPREVIR ANHYDROUS] | 9.5 nM | –
CC(C)Cn1cnc2c(N)nc3ccccc3c21 [IMIQUIMOD] | 1000 nM | –
COc1ccc2c(c1)C=C1Cn3c-2c(C2CCCCC2)c2ccc(cc23)C(=O)NS(=O)(=O)N(C)CCOCCN(C)C1=O [TMC-647055] | 82 nM | –

tested on: Hepatitis C virus; assay: Antiviral activity against HCV genotype 3a; type: functional, organism-based, Hepacivirus hominis; conditions: subtype 3a

SMILES | EC50
C=C[C@H]1C[C@]1(NC(=O)[C@@H]1C[C@@H]2CN1C(=O)[C@H](C(C)(C)C)NC(=O)O[C@@H]1C[C@H]1CCCCCc1c(nc3ccccc3c1OC1CC3CCC(C1)N3C)O2)C(=O)NS(=O)(=O)C1(C)CC1 (some centres undefined) | 0.26 nM

biological target: T2, Hepatitis C virus serine protease, NS3/NS4A; assay: Inhibition of HCV NS3/4a protease using Ac-DE-Dap(QXL520)-EE-Abu-shi-[COO]AS-C(5-FAMsp)-NH2 as substrate after 15 mins; type: protein-complex assay, Hepacivirus hominis; conditions: not given

SMILES | Ki | IC50
CCCC[C@H](NC(=O)[C@@H]1[C@@H]2[C@H](CN1C(=O)[C@@H](NC(=O)NC1(CS(=O)(=O)C(C)(C)C)CCCCC1)C(C)(C)C)C2(C)C)C(=O)C(=O)NC1CC1 | 6 nM | –
COc1ccc2c(O[C@@H]3C[C@H]4C(=O)N[C@]5(C(=O)NS(=O)(=O)C6CC6)C[C@H]5/C=C/CCCCN(C)C(=O)[C@@H]4C3)cc(-c3nc(C(C)C)cs3)nc2c1C | – | 3 to 28.2 nM
CC(C)(C)OC(=O)N[C@H]1CCCCC/C=C\[C@@H]2C[C@@]2(C(=O)NS(=O)(=O)C2CC2)NC(=O)[C@@H]2C[C@@H](OC(=O)N3Cc4cccc(F)c4C3)CN2C1=O [DANOPREVIR] | – | 0.2 to 3.5 nM

tested on: Hepatitis C virus; assay: Antiviral activity against HCV genotype 1a; type: functional, organism-based, Hepacivirus hominis; conditions: subtype 1a

SMILES | EC50
COC(=O)N[C@H](C(=O)N1C[C@H](C)C[C@@H]1c1nc2sc(-c3ccc(-c4ccc(-c5c[nH]c([C@@H]6[C@H](C)CCN6C(=O)[C@H](NC(=O)OC)C(C)C)n5)cc4)cc3)cc2[nH]1)C(C)C | 0.017 nM

tested on: Hepatitis C virus; assay: Antiviral activity against HCV genotype 1b; type: functional, organism-based, Hepacivirus hominis; conditions: subtype 1b

SMILES | EC50
COC(=O)N[C@H](C(=O)N1C[C@H](C)C[C@@H]1c1nc2sc(-c3ccc(-c4ccc(-c5c[nH]c([C@@H]6[C@H](C)CCN6C(=O)[C@H](NC(=O)OC)C(C)C)n5)cc4)cc3)cc2[nH]1)C(C)C | 0.008 nM
C=C[C@H]1C[C@]1(NC(=O)[C@@H]1C[C@@H]2CN1C(=O)[C@H](C(C)(C)C)NC(=O)O[C@@H]1C[C@H]1CCCCCc1c(nc3ccccc3c1OC1CC3CCC(C1)N3C)O2)C(=O)NS(=O)(=O)C1(C)CC1 (some centres undefined) | 0.62 nM

biological target: T2, Hepatitis C virus serine protease, NS3/NS4A; assay: Inhibition of HCV NS3/4a protease in presence Zn2+; type: protein-complex assay, Hepacivirus hominis; conditions: not given

SMILES | Ki
Cn1c(Cc2nc3cc(C(N)=O)ccc3[nH]2)nc2ccc(C(=O)NC(CP(=O)(O)O)C(=O)O)cc21 (centres undefined) | 27 nM
